Counter-ions that a name gives are not always drawn.
Legend:
Sugar Beet = experiment: Pre-emergence herbicide test, sugar beet; format: in vivo
Method: (§1) In this evaluation, each compound to be tested was dissolved in a 1:1 mixture of acetone and ethanol containing a small amount of Toximul R and Toximul S (each a sulfonate/nonionic blend produced by Stepan Chemical Company, Northfield, Illinois). The solution was then diluted with deionized water to a composition of the following concentrations, by weight: Plant species used as indicators of herbicidal activity were planted in galvanized pans (flats) 31.5 cm. long, 21.5 cm. wide, and 8.0 cm. deep. The bottoms of the flats had holes to facilitate drainage. The soil used was a 1:1 ratio by volume of masonry sand and shredded top soil. Flats that were to receive preemergence treatments were planted one day prior to, or on the same day treatments were applied. Flats that were to receive postemergence treatments were planted 9 days prior to treatment and placed in a growth chamber until the day of treatment. In the growth chamber, flats received 12 to 18 hours of light per day and were subject to temperatures of 75° to 85° F. The formulated test compound was applied uniformly to the indicator species with a modified DeVilbiss atomizer using air pressure of 3 to 5 psi. Each flat received 12.5 ml. of spray solution which was equal to 200 gallons/acre total spray volume. Plants were maintained in a greenhouse after treatment. Herbicidal effects of chemicals were evaluated by two injury rating systems 18 days after preemergence applications and 14 days after postemergence applications. The degree of plant injury was based on a 1 to 5 scale and a single numerical rating was assigned to each test species as follows: […]

Cucumber = experiment: Pre-emergence herbicide test, cucumber; format: in vivo
Method: as §1

Barnyard Grass = experiment: Pre-emergence herbicide test, barnyard grass; format: in vivo
Method: as §1

Wheat = experiment: Pre-emergence herbicide test, wheat; format: in vivo
Method: as §1

Lambsquarter = experiment: Pre-emergence herbicide test, lambsquarter; format: in vivo
Method: as §1

Jimsonweed = experiment: Pre-emergence herbicide test, jimsonweed; format: in vivo
Method: as §1

Tomato = experiment: Pre-emergence herbicide test, tomato; format: in vivo
Method: as §1

housefly = experiment: House fly contact test; on all read-outs here: ranges in brackets are in %; format: in vivo, Musca domestica; details: 1000 ppm; for Housefly Kd. (knockdown rating): 2 hours; for Housefly Cont. (mortality rating): 24 hours
Method: In this evaluation, each compound to be tested was dissolved in a 1:1 mixture of acetone and ethanol containing a small amount of Toximul R and Toximul S (each a sulfonate/nonionic blend produced by Stephan Chemical Company, Northfield, Ill.). The solution was then diluted with distilled water to a concentration of 1000 ppm of test compound. Lesser concentration formulations were made by diluting a portion of the 1000 ppm solution with distilled water containing 225 mg. of Toximul R and 125 mg. of Toximul S per liter.
This test was conducted with 4-day-old adults of Musca domestica (Linne), Order Diptera, Family Muscidae.
Rearing cages of 4-day-old adult house flies were placed in a cold room and held for one hour at 35° to 40° F. to chill so that the flies could be transferred to test cages. Approximately 100 flies were transferred to each test cage using a small scoop. The stainless steel test cages were five inches in diameter and one and three-fourths inches deep with a stainless steel screen bottom and screened removable friction fitting lid. The small hole on the side of the cage was kept stoppered except when a wick was inserted for feeding and watering.
Each cage was sprayed with 5 ml. of the test formulation containing 1000 ppm. of the test compound, using a DeVilbiss atomizer supplied with 5 psi air pressure. The nozzle was 33 inches from the top of the cage. After spraying, cages were allowed to dry.
Knockdown counts were made two hours after spraying and then the flies were fed and watered by inserting a four-inch wick of Fibre Flex Supreme, unbleached (16/32"), (manufactured by Sackner Products, Inc., Grand Rapids, Mich.) in the hole on the side of the cage. The cage was placed so that the wick hung down into a pan of five percent sugar solution in water.
One replicate was run for each test compound. One unsprayed cage was held as a control, one cage was sprayed as a negative control, and one cage was sprayed with a formulation containing 50 ppm. (0.005%) DDT as a reference standard.
Mortality counts were made 24 hours after spraying. The cage was rapped lightly. […] Moribund flies were counted as dead.

Rice = experiment: Pre-emergence herbicide test, rice; format: in vivo
Method: as §1

Cotton = experiment: Pre-emergence herbicide test, cotton; format: in vivo
Method: as §1

Soybean = experiment: Pre-emergence herbicide test, soybean; format: in vivo
Method: as §1

adult housefly = experiment: Efficacy against adult housefly, calves subcutaneous pellets (Example 20); format: in vivo, Musca domestica; details: calf 651, subcutaneous pellets about 5 mg./kg.; test day per line
Method: For the adult housefly test, 10 ml. of serum were employed to saturate a wick which was placed in a petri dish. Twenty-five chilled houseflies were placed in the dish which was then incubated for 24 hours at 27° C. and 50% relative humidity. After the end of the twenty-four hours, the efficacy of the candidate compound was determined as the percent mortality of housefly, adjusted as for blowfly by normal mortality in a control and reported according to the same scale as above.
The compound of Example 2, 2-hydroxy-2-(1,1,2,2-tetrafluoroethyl)-4-nitro-6-(trifluoromethyl)benzimidazoline sodium salt, was formulated neat into tablets, each containing about 85 mg. of compound.
These pellets were implanted in the right shoulder area of two calves, weighing 400 and 373 kilograms respectively, to supply a dose of about 5 mg./kg. (animals #651 and 1511, respectively). Another calf (animal #656) was maintained as a control and two additional calves weighing 336 and 350 kilograms (animals #654 and 655, respectively) received pellets of 2-(1,1,2,2-tetrafluoroethyl)-4-nitro-6-(trifluoromethyl)benzimidazole, to supply a dose of about 5 mg./kg. of compound.
As described in preceding examples, blood samples were withdrawn and analyzed for the concentration of the compound in the blood and percent efficacy against adult housefly and blowfly larvae.

## O=[N+]([O-])c1cc(C(F)(F)F)cc2c1NC(O)(C(F)(F)C(F)F)N2O (centres unmarked) [Example 12, 1,2-Dihydroxy-2-(1,1,2,2-Tetrafluoroethyl)-4-Nitro-6-(Trifluoromethyl)Benzimidazoline]
Sugar Beet; 1/2 lb/A
  plant injury rating: 1 (no injury)
Sugar Beet; 1 lb/A
  plant injury rating: 1 (no injury)
Sugar Beet; 2 lb/A
  plant injury rating: 3S
Cucumber; 1/2 lb/A
  plant injury rating: 1 (no injury)
Cucumber; 1 lb/A
  plant injury rating: 1 (no injury)
Cucumber; 2 lb/A
  plant injury rating: 1 (no injury)
Barnyard Grass; 1/2 lb/A
  plant injury rating: 1 (no injury)
Barnyard Grass; 1 lb/A
  plant injury rating: 1 (no injury)
Barnyard Grass; 2 lb/A
  plant injury rating: 1 (no injury)
Wheat; 1/2 lb/A
  plant injury rating: 1 (no injury)
Wheat; 1 lb/A
  plant injury rating: 1 (no injury)
Wheat; 2 lb/A
  plant injury rating: 1 (no injury)
Lambsquarter; 1/2 lb/A
  plant injury rating: 1 (no injury)
Lambsquarter; 1 lb/A
  plant injury rating: 3SB
Lambsquarter; 2 lb/A
  plant injury rating: 3S
Jimsonweed; 1/2 lb/A
  plant injury rating: 1 (no injury)
Jimsonweed; 1 lb/A
  plant injury rating: 1 (no injury)
Jimsonweed; 2 lb/A
  plant injury rating: 1 (no injury)
Tomato; 1/2 lb/A
  plant injury rating: 1 (no injury)
Tomato; 1 lb/A
  plant injury rating: 1 (no injury)
Tomato; 2 lb/A
  plant injury rating: 1 (no injury)
housefly
  Housefly Kd. (knockdown rating): 0 (0)
  Housefly Cont. (mortality rating): 2 (51-99)
Rice; 1/2 lb/A
  plant injury rating: 1 (no injury)
Rice; 1 lb/A
  plant injury rating: 1 (no injury)
Rice; 2 lb/A
  plant injury rating: 1 (no injury)
Cotton; 1/2 lb/A
  plant injury rating: 1 (no injury)
Cotton; 1 lb/A
  plant injury rating: 1 (no injury)
Cotton; 2 lb/A
  plant injury rating: 1 (no injury)
Soybean; 1/2 lb/A
  plant injury rating: 1 (no injury)
Soybean; 1 lb/A
  plant injury rating: 1 (no injury)
Soybean; 2 lb/A
  plant injury rating: 1 (no injury)

## O=[N+]([O-])c1cc(C(F)(F)F)cc2c1NC(O)(C(F)(F)C(F)F)N2 (centres unmarked) [Example 2, 2-Hydroxy-2-(1,1,2,2-Tetrafluoroethyl)-4-Nitro-6-(Trifluoromethyl)Benzimidazoline, Sodium Salt, and Hydrate]
Sugar Beet; 1/2 lb/A
  plant injury rating: 2S
Sugar Beet; 1/4 lb/A
  plant injury rating: 1 (no injury)
Sugar Beet; 2 lb/A
  plant injury rating: 5D
Sugar Beet; 4 lb/A
  plant injury rating: 5N
Cucumber; 1/2 lb/A
  plant injury rating: 1 (no injury)
Cucumber; 1/4 lb/A
  plant injury rating: 1 (no injury)
Cucumber; 1 lb/A
  plant injury rating: 1 (no injury)
Cucumber; 2 lb/A
  plant injury rating: 1 (no injury)
Cucumber; 4 lb/A
  plant injury rating: 4BS
Barnyard Grass; 1/2 lb/A
  plant injury rating: 1 (no injury)
Barnyard Grass; 1/4 lb/A
  plant injury rating: 1 (no injury)
Barnyard Grass; 2 lb/A
  plant injury rating: 1 (no injury)
Barnyard Grass; 4 lb/A
  plant injury rating: 2BS
Wheat; 1/2 lb/A
  plant injury rating: 1 (no injury)
Wheat; 1/4 lb/A
  plant injury rating: 1 (no injury)
Wheat; 1 lb/A
  plant injury rating: 1 (no injury)
Wheat; 2 lb/A
  plant injury rating: 1 (no injury)
Wheat; 4 lb/A
  plant injury rating: 3BS
Lambsquarter; 1/2 lb/A
  plant injury rating: 2S
Lambsquarter; 1/4 lb/A
  plant injury rating: 1 (no injury)
Lambsquarter; 2 lb/A
  plant injury rating: 5D
Lambsquarter; 4 lb/A
  plant injury rating: 5D
Jimsonweed; 1/2 lb/A
  plant injury rating: 1 (no injury)
Jimsonweed; 1/4 lb/A
  plant injury rating: 1 (no injury)
Jimsonweed; 1 lb/A
  plant injury rating: 1 (no injury)
Jimsonweed; 2 lb/A
  plant injury rating: 3BS
Jimsonweed; 4 lb/A
  plant injury rating: 5D
Adult housefly
  % Efficacy, Adult Housefly: 100%
Tomato; 1/2 lb/A
  plant injury rating: 2S
Tomato; 1/4 lb/A
  plant injury rating: 1 (no injury)
Tomato; 2 lb/A
  plant injury rating: 1 (no injury)
Tomato; 4 lb/A
  plant injury rating: 4BS
housefly
  Housefly Kd. (knockdown rating): 1 (1-50)
  Housefly Cont. (mortality rating): 3 (100)
Rice; 1/2 lb/A
  plant injury rating: 1 (no injury)
Rice; 1/4 lb/A
  plant injury rating: 1 (no injury)
Rice; 1 lb/A
  plant injury rating: 1 (no injury)
Rice; 2 lb/A
  plant injury rating: 2S
Rice; 4 lb/A
  plant injury rating: 2SB
Cotton; 1/2 lb/A
  plant injury rating: 1 (no injury)
Cotton; 1/4 lb/A
  plant injury rating: 1 (no injury)
Cotton; 2 lb/A
  plant injury rating: 1 (no injury)
Cotton; 4 lb/A
  plant injury rating: 2B
Soybean; 1/2 lb/A
  plant injury rating: 1 (no injury)
Soybean; 1/4 lb/A
  plant injury rating: 1 (no injury)
Soybean; 1 lb/A
  plant injury rating: 1 (no injury)
Soybean; 2 lb/A
  plant injury rating: 1 (no injury)
Soybean; 4 lb/A
  plant injury rating: 2B
